Read-outs that look alike come from different tables or passages of the source. Square brackets hold non-standard residues; d marks the D form. Peptide text beside a SMILES is read from it. * marks the point of attachment. Ala(1H-tetrazol-5-yl) = N[C@@H](Cc1nnn[nH]1)C(=O)O; 1Nal = N[C@@H](Cc1cccc2ccccc12)C(=O)O; 2Nal = N[C@@H](Cc1ccc2ccccc2c1)C(=O)O; Tic = O=C(O)[C@@H]1Cc2ccccc2CN1; Cha = N[C@@H](CC1CCCCC1)C(=O)O; NMeL = CN[C@@H](CC(C)C)C(=O)O; Cbz = O=C(OCc1ccccc1)*; Boc = CC(C)(C)OC(=O)*
Tests used:
cortical CCK receptor = biological target: T1, cortical CCK receptor (Cavia porcellus, UniProt H0VZC5); assay: Radioligand binding ([125I]Bolton-Hunter CCK8) in guinea pig cerebral cortical membranes; details: displacement of [125I]BH-CCK8, cortical membranes, 30°C for 150 min, Hill analysis; read-out: IC₅₀ (nM) cortex
T1 construct: Cortical and pancreatic membranes were prepared as described; from tissue; host or cells: guinea pig cerebral cortex membranes
T1 sequence (H0VZC5 1-426): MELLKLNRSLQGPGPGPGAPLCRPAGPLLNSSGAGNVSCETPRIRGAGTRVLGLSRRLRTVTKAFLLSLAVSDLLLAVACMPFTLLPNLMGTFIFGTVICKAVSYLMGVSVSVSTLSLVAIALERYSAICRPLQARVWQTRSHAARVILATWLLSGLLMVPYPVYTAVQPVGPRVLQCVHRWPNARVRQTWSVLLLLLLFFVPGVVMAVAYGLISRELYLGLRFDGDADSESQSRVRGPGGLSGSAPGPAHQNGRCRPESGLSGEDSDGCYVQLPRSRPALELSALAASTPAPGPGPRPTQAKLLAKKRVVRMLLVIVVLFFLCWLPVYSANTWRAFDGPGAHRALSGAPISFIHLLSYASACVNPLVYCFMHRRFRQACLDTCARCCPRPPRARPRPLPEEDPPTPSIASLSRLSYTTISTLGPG
Excerpt: Protocol for Radioligand Binding Experiments in Guinea Pig Cerebral Cortical and Pancreatic Membrance Preparations
CCK8 (Asp-Tyr(SO₃H)-Met-Gly-Trp-Met-Asp-Phe-NH₂), bestatin and phosphormaidon were purchased from Peptide International (Louisville, KY). EGTA, HEPES, BSA were purchased from Sigma Chemical Co. (St. Louis, MO). [¹²⁵I]-Bolton-Hunter CCK8 (BH-CCK8) (specific activity, 2200 Ci, mmol) was obtained from New England Nuclear (Boston, MA). Male ginea pigs, 250 to 325 g, were obtained from Scientific Small Animal Laboratory and Farm (Arlington Heights, IL). Collangenase, code CLSPA was purchased from Worthington (Frehold, NJ).
Cortical and pancreatic membranes were prepared as described (Lin and Miller; J. Pharmacol. Exp. Ther. 232, 775-780, 1985). In brief, pancreas and cortex were removed and rinsed with ice-cold saline. Visible fat and connective tissues were removed from the pancreas. Tissues were weighed and homogenized in approximately 25 mL of ice-cold 50 mM Tris-HCl buffer, pH 7.4 at 4°C with a Brinkman Polytron for 30 sec, setting 7. The homogenates were centrifuged for 10 min at 1075 x g and the pellet was discarded. The supernantants were saved and centrifuged at 38,730 x g for 20 min. The resultant pellets were rehomogenized in 25 mL of 50 mM Tris-HCl buffer with a Teflon-glass homogenizer, 5 up and down strokes. The homogenates were centrifuged again at 38,730 x g for 20 min. The pellets were then resuspended in 20 mM HEPES, containing 1 mM EGTA, 118 mM NaCl, 4.7 mM KCl, 5mM MgCl₂, 100 uM bestatin, 3 uM phosphoramidon, pH 7.4 at 22°C with a Teflon-glass homogenizer, 15 up and down strokes. The resuspension volume used for the cortex was 15 mL per g of original wet weight and 60 mL per g for pancreas.
[¹²⁵I]Bolton-Hunter CCK8 and test compounds were diluted with HEPES-EGTA-salt buffer (see above) containing 0.5% bovine serum albumin (BSA). To 1 mL Skatron polystyrene tubes were added 25 uL of test compounds, 25 uL of [¹²⁵I]BH-CCK8 and 200 uL of membrane suspension. The final BSA concentration was 0.1%. The cortical tissues were incubated at 30°C for 150 min. and pancreatic tissues were incubated at 37°C for 150 min. Incubations were terminated by filtration using Skatron Cell Harvester and SS32 microfiber filter mats. The specific binding of [¹²⁵I]BH-CCK8, defined as the difference betwen binding in the absence and presence of 1 uM CCK8, was 85-90% of total binding in cortex and 90-95% in pancreas. IC₅₀s were determined from the Hill analysis.

CCK receptors = biological target: T2, CCK receptors (Cavia porcellus, UniProt Q63931); assay: Radioligand binding ([125I]Bolton-Hunter CCK8) in guinea pig pancreatic membranes
T2 construct: Cortical and pancreatic membranes were prepared as described; from tissue; host or cells: guinea pig pancreas membranes
T2 sequence (Q63931 1-430): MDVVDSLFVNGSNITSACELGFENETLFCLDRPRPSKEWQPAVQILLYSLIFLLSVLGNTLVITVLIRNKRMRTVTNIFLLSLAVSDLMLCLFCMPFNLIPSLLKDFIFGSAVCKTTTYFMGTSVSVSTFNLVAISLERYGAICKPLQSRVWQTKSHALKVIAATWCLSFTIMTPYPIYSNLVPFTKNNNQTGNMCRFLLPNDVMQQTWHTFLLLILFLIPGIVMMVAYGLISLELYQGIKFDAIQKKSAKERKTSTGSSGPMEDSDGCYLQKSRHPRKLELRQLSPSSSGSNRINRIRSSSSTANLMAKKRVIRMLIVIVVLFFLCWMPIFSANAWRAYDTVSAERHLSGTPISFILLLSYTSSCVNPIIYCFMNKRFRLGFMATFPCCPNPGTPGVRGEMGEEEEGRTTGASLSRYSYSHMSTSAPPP
Experimental: EGTA, HEPES, BSA were purchased from Sigma Chemical Co. (St. Louis, MO). […] Male ginea pigs, 250 to 325 g, were obtained from Scientific Small Animal Laboratory and Farm (Arlington Heights, IL). Collangenase, code CLSPA was purchased from Worthington (Frehold, NJ).
The final BSA concentration was 0.1%. The cortical tissues were incubated at 30°C for 150 min. and pancreatic tissues were incubated at 37°C for 150 min. Incubations were terminated by filtration using Skatron Cell Harvester and SS32 microfiber filter mats. […] IC₅₀s were determined from the Hill analysis.

[1] = biological target: T3, CCK-B receptors on small cell lung cancer cell lines (Homo sapiens, UniProt P32239); assay: Measurement of [Ca++]i changes in NCI-H345 and H209 cell lines (indo-1 fluorescence); type: cell-based; details: read-out: Intrinsic Activity Relative to CCK-8
T3 construct: endogenous in cells; host or cells: NCI-H345 and H209 small cell lung cancer cells
T3 sequence (P32239 1-447): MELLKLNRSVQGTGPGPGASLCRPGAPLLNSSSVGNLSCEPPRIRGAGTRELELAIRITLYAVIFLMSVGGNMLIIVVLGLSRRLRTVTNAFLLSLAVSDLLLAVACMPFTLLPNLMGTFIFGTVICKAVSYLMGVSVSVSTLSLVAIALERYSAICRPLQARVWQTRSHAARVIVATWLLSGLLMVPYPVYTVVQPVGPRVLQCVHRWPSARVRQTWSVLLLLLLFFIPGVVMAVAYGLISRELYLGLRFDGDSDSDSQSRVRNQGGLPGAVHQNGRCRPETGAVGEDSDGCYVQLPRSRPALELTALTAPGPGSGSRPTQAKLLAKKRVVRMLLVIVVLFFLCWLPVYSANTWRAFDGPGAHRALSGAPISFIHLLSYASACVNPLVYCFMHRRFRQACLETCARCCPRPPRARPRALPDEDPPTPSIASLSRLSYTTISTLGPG
Experimental: Protocol for Measuring [Ca++]i Changes in NCI-H345 and H209 Cell Lines
Culture conditions were as described (D.G. Yoder, T.W. Moody, Peptides, 8, 103 (1987), except that the medium was modified to RPMI 1640 with 2.5% fetal bovine serum (heat inactivated), 5µg/l sodium selenite, 5 mg/l human transferrin, 5 mg/l insulin, penicillin (100 U/l) and streptomycin (100 µg/l). To measure intracellular Ca²⁺, cells were loaded with 1 µM of indo-1,AM, for 60 min at 37°C. The cells were centrifuged at 750 x g for 5 min and resuspended in 40 mL Buffer F (Dulbecco's phosphate buffered saline containing 0.1% glucose, pH 7.4). The cells were counted then twice washed by centrifugation. The final pellet was resuspended (approximately 1 x 10⁶ cells/mL) in Buffer F. The cells were thermally equilibrated in a thermostated cuvette (37°C) for 2 min prior to base-line fluorescence measurement. Fluorescence measurements were made with an SLM 8000C spectrofluorimeter equipped with magnetic microstirrer and polarizing filters. Measurements with indo-1-loaded cells were obtained at excitation wavelength of 350 nm and emission wavelength of 480 and 405 nM and the time interval for the measurements was 0.5 sec.

[2] = displacement of [125I]BH-CCK8, pancreatic membranes, 37°C for 150 min, Hill analysis, read-out: IC₅₀ (uM) pancreas

IC50 (cortical CCK receptor) [nM]	IC50 (CCK receptors; [2]) [µM]	Emax [1] [%]	SMILES	IC50 (CCK receptors) [µM]
13	> 1		CC(C)C[C@H](NC(=O)[C@H](Cc1c[nH]c2ccccc12)NC(=O)OC(C)(C)C)C(=O)N[C@@H](Cc1nnn[nH]1)C(=O)N[C@@H](Cc1ccccc1)C(N)=O [Example 9, Boc-Trp-Leu-[β-1(2)H-tetrazol-5-yl]-L-alanyl-Phe-NH₂] (Boc-WL[Ala(1H-tetrazol-5-yl)]F-NH2)	
5	1		CC(C)C[C@@H](C(=O)N[C@@H](CC(=O)O)C(=O)N[C@@H](Cc1ccccc1)C(N)=O)N(C)C(=O)[C@H](Cc1c[nH]c2ccccc12)NC(=O)OCc1ccccc1 [Example 15, Cbz-Trp-(NMe)Leu-Asp-Phe-NH₂] (Cbz-W[NMeL]DF-NH2)	
54	1.8		CC(C)C[C@H](NC(=O)[C@H](Cc1c[nH]c2ccccc12)NC(=O)OC(C)(C)C)C(=O)N[C@@H](CC(=O)O)C(=O)NC(=Cc1ccccc1)C(N)=O [Example 19, Boc-Trp-Leu-Asp-(dehydro)Phe-NH₂]	
13	3.8		CC(C)C[C@H](NC(=O)[C@H](Cc1c[nH]c2ccccc12)NC(=O)OC(C)(C)C)C(=O)N[C@@H](CC(=O)O)C(=O)N[C@@H](Cc1c[nH]c2ccccc12)C(N)=O [Example 42, Boc-Trp-Leu-Asp-Trp-NH₂] (Boc-WLDW-NH2)	
170	11		CC(C)C[C@H](NC(=O)[C@H](Cc1c[nH]c2ccccc12)NC(=O)OC(C)(C)C)C(=O)N[C@@H](CC(=O)O)C(=O)N[C@@H](CC1CCCCC1)C(N)=O [Example 43, Boc-Trp-Leu-Asp-Cha-NH₂] (Boc-WLD[Cha]-NH2)	
		104	CC(C)C[C@H](NC(=O)[C@H](Cc1c[nH]c2ccccc12)NC(=O)OC(C)(C)C)C(=O)N[C@@H](CC(=O)O)C(=O)N[C@@H](Cc1ccc2ccccc2c1)C(N)=O [Example 44, Boc-Trp-Leu-Asp-β-Nal-NH₂] (Boc-WLD[2Nal]-NH2)	
12	1.7		CC(C)C[C@H](NC(=O)[C@H](Cc1c[nH]c2ccccc12)NC(=O)OC(C)(C)C)C(=O)N[C@@H](CC(=O)O)C(=O)N[C@@H](Cc1cccc2ccccc12)C(N)=O [Example 45, Boc-Trp-Leu-Asp-α-Nal-NH₂] (Boc-WLD[1Nal]-NH2)	
27	5		CC(C)C[C@H](NC(=O)[C@H](Cc1ccc2ccccc2c1)NC(=O)OC(C)(C)C)C(=O)N[C@@H](CC(=O)O)C(=O)N[C@@H](Cc1ccccc1)C(N)=O [Example 50, Boc-β-Nal-Leu-Asp-Phe-NH₂] (Boc-[2Nal]LDF-NH2)	
5	3.7		CCC[C@H]1CCN(C(=O)[C@H](Cc2c[nH]c3ccccc23)NC(=O)OC(C)(C)C)[C@@H]1C(=O)N[C@@H](CC(=O)O)C(=O)N[C@@H](Cc1c[nH]c2ccccc12)C(N)=O [Example 54, Boc-Trp-Tpp-Asp-Trp-NH₂]	
0.4	1.4	109	CCC[C@H]1CCN(C(=O)[C@@H]2Cc3c[nH]c4cccc(c34)CC(=O)N2)[C@@H]1C(=O)N[C@@H](CC(=O)O)C(=O)N[C@@H](Cc1cccc2ccccc12)C(N)=O [Example 57, Ctp-Tpp-Asp-α-Nal-NH₂]	
1.9	11	100	CCC[C@H]1CCN(C(=O)[C@@H]2Cc3c[nH]c4cccc(c34)CC(=O)N2)[C@@H]1C(=O)N[C@@H](CC(=O)O)C(=O)N[C@@H](Cc1ccc2ccccc2c1)C(N)=O [Example 58, Ctp-Tpp-Asp-β-Nal-NH₂]	

Continued, molecule first:

SMILES	IC50 (cortical CCK receptor) [nM]	IC50 (CCK receptors; [2]) [µM]	Emax [1] [%]	IC50 (CCK receptors) [µM]
CC(C)C[C@H](NC(=O)[C@@H]1Cc2c[nH]c3cccc(c23)CC(=O)N1)C(=O)N[C@@H](CC(=O)O)C(=O)N[C@@H](Cc1ccccc1)C(N)=O [Example 1, CTP-Leu-Asp-Phe-NH₂]	2.5	2.7		
CC(C)C[C@H](NC(=O)[C@H](Cc1c[nH]c2ccccc12)NC(=O)OC(C)(C)C)C(=O)N[C@@H](CC(=O)O)C(=O)N1Cc2ccccc2C[C@H]1C(N)=O [Example 2, Boc-Trp-Leu-Asp-Tiq-NH₂] (Boc-WLD[Tic]-NH2)	37			19
CC(C)C[C@H](NC(=O)[C@@H]1Cc2c[nH]c3cccc(c23)CC(=O)N1)C(=O)N[C@@H](CC(=O)O)C(=O)N(C)[C@@H](Cc1ccccc1)C(N)=O [Example 6, Ctp-Leu-Asp-(NMe)Phe-NH₂]			96	
CC(C)C[C@H](NC(=O)[C@@H]1Cc2c[nH]c3cccc(c23)CC(=O)N1)C(=O)N[C@@H](CC(=O)O)C(=O)NC(=Cc1ccccc1)C(N)=O [Example 23, Ctp-Leu-Asp-(dehydro)Phe-NH₂]	16	> 10		
CCC[C@H]1CCN(C(=O)[C@H](Cc2c[nH]c3ccccc23)NC(=O)OC(C)(C)C)[C@@H]1C(=O)N[C@@H](CC(=O)O)C(=O)N[C@@H](Cc1ccccc1)C(N)=O [Example 47, Boc-Trp-Tpp-Asp-Phe-NH₂]	1.2	89		
CCC[C@H]1CCN(C(=O)[C@@H]2Cc3c[nH]c4cccc(c34)CC(=O)N2)[C@@H]1C(=O)N[C@@H](CC(=O)O)C(=O)N(C)[C@@H](Cc1ccccc1)C(N)=O [Example 52, Ctp-Tpp-Asp-(NMe)Phe-NH₂]	2.6	3.5	100	
CCC[C@H]1CCN(C(=O)[C@@H]2Cc3c[nH]c4cccc(c34)CC(=O)N2)[C@@H]1C(=O)N[C@@H](CC(=O)O)C(=O)N[C@@H](CC1CCCCC1)C(N)=O [Example 59, Ctp-Tpp-Asp-Cha-NH₂]	0.9	4.3		

From patent EP0405506A1, “Tetrapeptide type-B CCK receptor ligands” (ABBOTT LABORATORIES, priority 1989, dated 1991)
